Laboratory results from patent EP4159213A1, “PHARMACEUTICAL COMPOSITIONS FOR USE IN PREVENTION AND/OR TREATMENT AND/OR CURE OF HEPATITIS B VIRUS” (Katholieke Universiteit Leuven, priority 2021, dated 2023).
Like-named read-outs stand apart in the source and are kept apart here. Residues, ends and D or L forms follow the SMILES beside them.

Assays:
Assay type in all cases: cell-based
human NTCP [1] = biological target: T1, human NTCP (Homo sapiens, UniProt Q14973); assay: Uptake kinetics of tauro-nor-THCA-24-DBD in NTCP-transfected CHO cells; design: expressed in transfected cells; host or cells: CHO cells, geneticin selection, expression induced with sodium butyrate
T1 sequence (Q14973 1-349): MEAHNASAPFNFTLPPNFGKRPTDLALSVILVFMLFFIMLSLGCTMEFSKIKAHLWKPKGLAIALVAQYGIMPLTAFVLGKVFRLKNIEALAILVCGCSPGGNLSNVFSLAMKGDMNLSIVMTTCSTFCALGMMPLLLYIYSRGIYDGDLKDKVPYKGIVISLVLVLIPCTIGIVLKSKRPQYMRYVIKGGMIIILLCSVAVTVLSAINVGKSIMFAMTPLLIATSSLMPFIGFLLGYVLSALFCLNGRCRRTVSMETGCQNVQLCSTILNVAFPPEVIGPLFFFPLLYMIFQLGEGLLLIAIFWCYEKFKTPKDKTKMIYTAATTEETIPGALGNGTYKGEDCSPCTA
Method: (§1) To culture of NTCP-transfected CHO cells, wild-type and human NTCP-transfected CHO cells were cultured from passage 20 to 45 in T-75 flasks (Greiner-Bio-One, Wemmel, Belgium) as prescribed previously (Treiber et al., 2007). The cells were placed in an incubator at 37 °C and 5% CO2. The culture medium consisted of DMEM with 1 g·L^-1 glucose and 25 mM HEPES, supplemented with 10% FBS, 0.05 mg·mL^-1 L-proline, 100 IU·mL^-1 penicillin, 100 […], 2 mM glutamine, 0.11 mg·mL^-1 sodium pyruvate. To ensure selection of NTCP-transfected cells, 0.5 mg·mL^-1 geneticin was added to the medium of the transfected cells. Cells were seeded in black 96-well plates with transparent bottom at a density of 6000 cells·well^-1 and 4000 cells·well^-1 for wild-type and transfected cells, respectively. The medium was replaced every other day and 5 mM sodium butyrate was added to induce protein expression at least 36 h before the start of the experiments. Experiments were performed on day 4 or 5 after seeding when confluence was reached.
(§2) Furthermore, to analyse the uptake experiments in NTCP-transfected CHO cells, cells were rinsed twice with 200 µL-well^-1 uptake buffer (HBSS containing 10 mM HEPES, pH 7.4) at 37 °C and subsequently preincubated with 100 µL uptake buffer for 15 minutes. For inhibition experiments, compounds were added at double concentration during preincubation. […] Uptake of tauro-nor-THCA-24-DBD was determined using fluorescence spectroscopy (excitation 440 nm, emission 580 nm) using a Tecan Infinite 200 plate reader (Tecan Benelux, Mechelen, Belgium). Protein content of each well was determined with the BCA Protein assay (Thermo Fisher Scientific, Waltham, MA) performed according to the manufacturer's protocol. Uptake kinetics of tauro-nor-THCA-24-DBD were determined by incubating eight different concentrations in the absence of any compound. The inhibitory potential of all compounds of the Spectrum Collection (n = 2000) and the ChemDiv library (n = 556) were determined at equimolar concentrations with 3 µM tauro-nor-THCA-24-DBD. […]

human NTCP [2] = biological target: T1, human NTCP; assay: Inhibition of tauro-nor-THCA-24-DBD uptake in NTCP-transfected CHO cells; design: expressed in transfected cells; host or cells: CHO cells, geneticin-selected, expression induced with sodium butyrate
Method: The cells were placed in an incubator at 37 °C and 5% CO2. The culture medium consisted of DMEM with 1 g·L^-1 glucose and 25 mM HEPES, supplemented with 10% FBS, 0.05 mg·mL^-1 L-proline, 100 IU·mL^-1 penicillin, 100 […], 2 mM glutamine, 0.11 mg·mL^-1 sodium pyruvate. To ensure selection of NTCP-transfected cells, 0.5 mg·mL^-1 geneticin was added to the medium of the transfected cells. Cells were seeded in black 96-well plates with transparent bottom at a density of 6000 cells·well^-1 and 4000 cells·well^-1 for wild-type and transfected cells, respectively. […]
as §2, with “minutes.” for “minutes. For inhibition experiments, compounds were added at double concentration during preincubation.”, “compound.” for “compound. The inhibitory potential of all compounds of the Spectrum Collection (n = 2000) and the ChemDiv library (n = 556) were determined at equimolar concentrations with 3 µM tauro-nor-THCA-24-DBD.”

human NTCP [3] = biological target: T1, human NTCP; assay: as above; design: expressed in transfected cells; host or cells: CHO cells, geneticin selection, expression induced with sodium butyrate; conditions: for Ki / concentration-dependent inhibition of tauro-nor-THCA-24-DBD uptake: 3 µM tauro-nor-THCA-24-DBD; for Uptake of tauro-nor-THCA-24-DBD (% of control): compound at equimolar concentration with 3 µM tauro-nor-THCA-24-DBD, triplicate; for concentration-dependent inhibition of tauro-nor-THCA-24-DBD uptake: multiple inhibitor concentrations
Method: as §1, with “The” for “To culture of NTCP-transfected CHO cells, wild-type and human NTCP-transfected CHO cells were cultured from passage 20 to 45 in T-75 flasks (Greiner-Bio-One, Wemmel, Belgium) as prescribed previously (Treiber et al., 2007). The”
Furthermore, to analyse the uptake experiments in NTCP-transfected CHO cells, cells were rinsed twice with 200 µL-well^-1 uptake buffer (HBSS containing 10 mM HEPES, pH 7.4) at 37 °C and subsequently preincubated with 100 µL uptake buffer for 15 minutes. For inhibition experiments, compounds were added at double concentration during preincubation. Uptake was initiated by adding 100 µL double-concentrated tauro-nor-THCA-24-DBD solution in uptake buffer. Cells were incubated for 15 minutes. The reaction was quenched by aspirating the incubation mixture and washing four times with ice cold uptake buffer. The cells were lysed with 100 µL 0.5% Triton X-100 in PBS and placed on a plate shaker (300 rpm) at room temperature for 30 minutes. Uptake of tauro-nor-THCA-24-DBD was determined using fluorescence spectroscopy (excitation 440 nm, emission 580 nm) using a Tecan Infinite 200 plate reader (Tecan Benelux, Mechelen, Belgium). Protein content of each well was determined with the BCA Protein assay (Thermo Fisher Scientific, Waltham, MA) performed according to the manufacturer's protocol. Uptake kinetics of tauro-nor-THCA-24-DBD were determined by incubating eight different concentrations in the absence of any compound. […] All conditions were tested in triplicate.
Uptake of tauro-nor-THCA-24-DBD in presence of compounds was expressed to uptake of the control for each batch, i.e. when no compound was present.
For determination of the IC50, the uptake in presence of various concentrations of inhibitor was fitted to the sigmoid Emax model: E = Emax −(Emax−E0) × (([I])^n)/(([I])^n + IC50^n) [formula] with E the uptake of tauro-nor-THCA-24-DBD, E0 the uptake at maximal inhibition by the compound, Emax the uptake at minimal inhibition, IC50 the concentration of the inhibitor at half maximal inhibition, n the Hill coefficient and [I] the concentration of the inhibitor. All curves were fitted with nonlinear least squares regression using R version 3.5.1.
Assuming competitive inhibition, the Cheng-Prusoff equation was used to determine the Ki value: Ki = (IC50)/(1 + ([S])/(Km)) [formula] where Ki is the binding affinity of the inhibitor, IC50 the concentration of the inhibitor at half maximal inhibition, [S] the substrate concentration, and Km the Michaelis-Menten constant of the substrate.

[4] = concentration dependent uptake, 15 minutes, NTCP-transfected CHO cells, Michaelis-Menten fit
[5] = Cheng-Prusoff from IC50, screening hits, read-out: Ki

| Compound | Ki (human NTCP [3]; [5]) [µM] | Uptake of tauro-nor-THCA-24-DBD (% of control) (human NTCP [3]) | other results |
| --- | --- | --- | --- |
| tauro-nor-THCA-24-DBD | – | – | Km (human NTCP [1]; [4]): 9.2 ± 1.8 µM; Vmax (human NTCP [1]; [4]): 322.1 ± 18.3 pmol·mg protein^-1·min^-1; uptake clearance (human NTCP [1]; corresponds to Vmax and Km): 35.0 µL·mg protein^-1· min^-1 |
| Gramicidin | – | – | Ki (human NTCP [2]; 3 µM tauro-nor-THCA-24-DBD, Cheng-Prusoff from IC50, screening hits): 7.59 µM; Uptake of tauro-nor-THCA-24-DBD (% of control) (human NTCP [2]; compound at equimolar concentration with 3 µM tauro-nor-THCA-24-DBD, triplicate): 37.54 % of control |
| Dehydroavocatin-1 -acetate | 118 | 44.14 % of control | – |
| COc1cc2c3cc1Oc1cc(ccc1O)C[C@@H]1c4c(cc(OC)c(O)c4Oc4ccc(cc4)C[C@@H]3N(C)CC2)CC[N+]1(C)C.Cl.O.O.O.O.O.[Cl-] [Tubocurarine chloride] | – | 49.76 % of control | – |
| O=C(O)c1cc(O)c2c(c1)[C@@H]([C@H]1c3cc(C(=O)O)cc(O)c3C(=O)c3c(O[C@@H]4O[C@H](CO)[C@@H](O)[C@H](O)[C@H]4O)cccc31)c1cccc(O[C@@H]3O[C@H](CO)[C@@H](O)[C@H](O)[C@H]3O)c1C2=O [sennoside B] | – | – | concentration-dependent inhibition of tauro-nor-THCA-24-DBD uptake (human NTCP [3]): did not show concentration-dependent inhibition |
| COc1cc2c(cc1OC)[C@@H]1C(=O)c3ccc4c(c3O[C@@H]1CO2)C[C@H](C(C)C)O4 [Dihydrorotenone] | 1.11 | 37.31 % of control | – |
| N[C@@H](Cc1ccccc1)C(=O)N[C@@H](Cc1ccc(O)cc1)C(=O)O [Phenylalanyltyrosine] (H-Phe-Tyr-OH) | – | 47.22 % of control | – |
| O=C1OC(c2ccc(O)c(S(=O)(=O)O)c2)(c2ccc(O)c(S(=O)(=O)O)c2)c2c(Br)c(Br)c(Br)c(Br)c21 [Bromosulfophthalein] | – | – | Ki (human NTCP [3]; 15 minutes, Cheng-Prusoff from IC50, known NTCP inhibitors, read-out: Ki ± SE): 10.7 ± 3.1 µM; concentration-dependent inhibition of tauro-nor-THCA-24-DBD uptake (human NTCP [3]): concentration-dependent manner |
| Cn1nnnc1SCC1=C(C(=O)O)N2C(=O)[C@@H](NC(=O)[C@H](O)c3ccccc3)[C@H]2SC1 [Cefamandole sodium] | 2.07 | 23.97 % of control | – |
| C=CC(C)(O)CCC=C(C)C (stereo not drawn) [(+)- Linalool] | – | 46.35 % of control | – |
| COc1ccc(-c2oc3c(CC=C(C)C)c(O)cc(O)c3c(=O)c2O[C@@H]2O[C@@H](C)[C@H](O)[C@@H](O)[C@H]2O)cc1 [Baohuoside I] | – | – | concentration-dependent inhibition of tauro-nor-THCA-24-DBD uptake (human NTCP [3]): showed concentration-dependent inhibition; Ki (human NTCP [3]; values given with ± spread, read-out: Ki): 12.6 ± 4.1 µM |
| COc1cc(OC)c2ccc(=O)oc2c1 [Citropten] | – | 46.97 % of control | – |
| CCOc1nc2cccc(C(=O)OC(C)OC(=O)OC3CCCCC3)c2n1Cc1ccc(-c2ccccc2-c2nnn[nH]2)cc1 (stereo not shown) [Candesartan cilextil] | 0.34 | 19.76 % of control | – |
